Results on one molecule are retold here after ChEMBL document CHEMBL4346716, “Synthesis of novel andrographolide beckmann rearrangement derivatives and evaluation of their HK2-related anti-inflammatory activities” (Eur J Med Chem, 2019).

Calls of active or inactive are those of the source. No cut-off for these calls is given here.

The target in series [1] is T1, Hexokinase-2 (Homo sapiens) (UniProt P52789).
T1 sequence (whole entry): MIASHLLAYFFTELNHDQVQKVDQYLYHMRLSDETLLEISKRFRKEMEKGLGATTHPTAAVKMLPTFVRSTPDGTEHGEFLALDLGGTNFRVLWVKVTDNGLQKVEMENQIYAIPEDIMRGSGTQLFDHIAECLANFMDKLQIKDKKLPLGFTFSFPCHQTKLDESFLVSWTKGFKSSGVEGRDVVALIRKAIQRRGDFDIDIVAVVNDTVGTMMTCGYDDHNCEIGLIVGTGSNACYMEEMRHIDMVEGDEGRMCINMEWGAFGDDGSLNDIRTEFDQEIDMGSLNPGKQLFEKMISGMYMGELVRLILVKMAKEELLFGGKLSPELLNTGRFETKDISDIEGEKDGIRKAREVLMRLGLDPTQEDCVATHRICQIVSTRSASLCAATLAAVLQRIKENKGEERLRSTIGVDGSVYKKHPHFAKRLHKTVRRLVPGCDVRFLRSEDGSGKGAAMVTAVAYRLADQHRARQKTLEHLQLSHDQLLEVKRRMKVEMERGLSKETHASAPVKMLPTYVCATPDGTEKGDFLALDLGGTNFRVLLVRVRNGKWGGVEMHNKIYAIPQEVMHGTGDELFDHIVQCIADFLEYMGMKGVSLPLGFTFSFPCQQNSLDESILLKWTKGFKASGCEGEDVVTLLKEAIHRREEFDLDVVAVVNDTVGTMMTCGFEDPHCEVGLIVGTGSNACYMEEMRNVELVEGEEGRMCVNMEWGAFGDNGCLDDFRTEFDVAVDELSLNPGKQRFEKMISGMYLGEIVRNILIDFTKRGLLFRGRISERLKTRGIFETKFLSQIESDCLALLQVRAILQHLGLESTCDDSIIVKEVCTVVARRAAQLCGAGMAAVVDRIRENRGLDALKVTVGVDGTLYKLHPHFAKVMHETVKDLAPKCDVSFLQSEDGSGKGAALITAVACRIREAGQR
The series can be described thus: Non competitive inhibition of recombinant human HK2 expressed in Escherichia coli BL21(DE3) assessed as decrease in Vmax using glucose as substrate by Lineweaver-Burk double reciprocal plot analysis.

For series [2], the target named is T1, Hexokinase-2 (Homo sapiens). The series can be described thus: Non competitive inhibition of recombinant human HK2 expressed in Escherichia coli BL21(DE3) assessed as decrease in Vmax using ATP as substrate by Lineweaver-Burk double reciprocal plot analysis.
Series [3] deals with RAW264.7. The series can be described thus: Antiinflammatory activity against mouse RAW264.7 cells assessed as inhibition of LPS-induced iNOS protein expression preincubated for 3 hrs followed by LPS addition measured after 24 hrs by Western blot analysis. The series is classed as functional, cell-based. Background: In western blotting, separated proteins are transferred to a membrane and probed.

Series [4] addresses T2, Hexokinase-2 (Mus musculus) (UniProt O08528).
T2 sequence (whole entry): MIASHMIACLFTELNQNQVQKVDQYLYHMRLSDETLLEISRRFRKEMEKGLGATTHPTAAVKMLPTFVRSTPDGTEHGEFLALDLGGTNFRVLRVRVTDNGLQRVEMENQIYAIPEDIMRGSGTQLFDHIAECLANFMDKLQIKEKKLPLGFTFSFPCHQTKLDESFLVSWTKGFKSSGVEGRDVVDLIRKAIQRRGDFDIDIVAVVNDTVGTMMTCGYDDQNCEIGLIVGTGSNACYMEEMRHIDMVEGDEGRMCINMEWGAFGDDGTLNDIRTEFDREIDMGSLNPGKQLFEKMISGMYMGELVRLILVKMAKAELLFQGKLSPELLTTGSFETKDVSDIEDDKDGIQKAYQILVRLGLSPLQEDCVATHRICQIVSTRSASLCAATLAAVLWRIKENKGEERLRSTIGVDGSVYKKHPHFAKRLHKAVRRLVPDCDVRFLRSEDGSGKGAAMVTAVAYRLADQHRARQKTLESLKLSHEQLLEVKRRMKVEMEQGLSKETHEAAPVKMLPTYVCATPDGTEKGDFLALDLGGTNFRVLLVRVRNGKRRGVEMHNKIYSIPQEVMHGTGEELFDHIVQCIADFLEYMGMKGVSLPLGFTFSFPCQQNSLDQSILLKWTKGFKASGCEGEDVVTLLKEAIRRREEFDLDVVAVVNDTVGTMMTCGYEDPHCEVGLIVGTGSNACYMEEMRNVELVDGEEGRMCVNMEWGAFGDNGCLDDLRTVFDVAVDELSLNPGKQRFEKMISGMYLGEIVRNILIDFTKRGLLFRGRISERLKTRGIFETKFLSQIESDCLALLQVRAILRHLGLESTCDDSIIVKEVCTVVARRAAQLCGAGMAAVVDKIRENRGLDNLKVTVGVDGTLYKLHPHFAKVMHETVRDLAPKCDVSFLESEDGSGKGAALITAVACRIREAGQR
The series can be described thus: Inhibition of HK2 mouse RAW264.7 cells assessed as reduction in LPS-induced glycolysis at 50 uM followed by LPS-stimulation and measured after 4 hrs by seahorse XFe96 analyser based assay. Type of series: cell-based.

In series [5] the test system is RAW264.7. Kind of series: Cytotoxicity against mouse RAW264.7 cells assessed as reduction in cell viability up to 100 uM after 24 hrs by MTT assay. Type of series: cell-based. The note with it: raw264.7, 24 h. In general terms: Tetrazolium assays rely on reduction of a dye to a coloured formazan, in cell work by metabolically active cells.
In series [6] the target is Transcription factor p65 (Mus musculus) (UniProt Q04207). The series can be described thus: Inhibition of LPS-stimulated NFkappaB p65 nuclear translocation in mouse RAW264.7 cells at 25 uM pretreated for 2 hrs followed by LPS-stimulation and measured after 12 hrs by DAPI staining based fluorescence microscopic analysis. Type of series: cell-based.
Transcription factor p65 (Mus musculus), sequence (Q04207 whole entry): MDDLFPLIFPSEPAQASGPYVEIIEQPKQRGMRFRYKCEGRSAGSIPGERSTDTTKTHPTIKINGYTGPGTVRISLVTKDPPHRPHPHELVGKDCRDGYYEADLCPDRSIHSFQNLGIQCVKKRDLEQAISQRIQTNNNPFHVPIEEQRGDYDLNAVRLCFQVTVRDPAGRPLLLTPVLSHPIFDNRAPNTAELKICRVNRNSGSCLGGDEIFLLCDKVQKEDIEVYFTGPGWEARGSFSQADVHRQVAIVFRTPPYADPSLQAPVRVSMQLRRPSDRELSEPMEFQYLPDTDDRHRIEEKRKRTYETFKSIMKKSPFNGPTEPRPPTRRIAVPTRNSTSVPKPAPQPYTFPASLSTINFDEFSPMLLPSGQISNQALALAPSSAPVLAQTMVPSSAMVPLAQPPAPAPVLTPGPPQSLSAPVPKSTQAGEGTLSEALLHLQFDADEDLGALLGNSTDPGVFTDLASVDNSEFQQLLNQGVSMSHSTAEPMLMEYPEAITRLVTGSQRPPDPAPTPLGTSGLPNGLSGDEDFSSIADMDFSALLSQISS
Series [7] has as its system RAW264.7. The series can be described thus: Antiinflammatory activity in mouse RAW264.7 cells assessed as reduction in LPS-induced IL-1beta production preincubated for 3 hrs followed by LPS addition measured after 24 hrs by ELISA. The series is classed as functional, cell-based. In general terms: An ELISA detects its analyte on a solid surface through an enzyme-linked reagent.

Series [8] deals with T3, Hexokinase-2 (Homo sapiens, UniProt P52789).
T3 sequence (P52789 whole entry): T1 sequence (whole entry)
The series can be described thus: Binding affinity to recombinant human HK2 expressed in Escherichia coli BL21(DE3) assessed as dissociation constant measured after 15 mins by microscale thermophoresis assay.

Series [9] concerns RAW264.7. The series can be described thus: Inhibition of LPS-induced NFkappaB protein expression in mouse RAW264.7 cells at 12.5 to 50 uM preincubated for 3 hrs followed by LPS addition and measured after 24 hrs by Western blot analysis. The series is classed as functional, cell-based.
Series [10] relates to RAW264.7. The series can be described thus: Antiinflammatory activity in mouse RAW264.7 cells assessed as inhibition of LPS-induced NO production preincubated for 3 hrs followed by LPS addition measured after 24 hrs by Griess assay. Type of series: functional, cell-based.
Series [11] has as its target T3, Hexokinase-2. Kind of series: Inhibition of recombinant human HK2 expressed in Escherichia coli BL21(DE3) using glucose as substrate preincubated for 10 mins followed by substrate addition in presence of ATP by G6PDH/NADP coupled assay.
The test system of series [12] is RAW264.7. Kind of series: Antiinflammatory activity against mouse RAW264.7 cells assessed as inhibition of LPS-induced COX2 protein expression preincubated for 3 hrs followed by LPS addition measured after 24 hrs by Western blot analysis. Type of series: functional, cell-based.
Series [13] relates to RAW264.7. Kind of series: Antiinflammatory activity in mouse RAW264.7 cells assessed as reduction in LPS-induced IL-6 production preincubated for 3 hrs followed by LPS addition measured after 24 hrs by ELISA. The series is classed as functional, cell-based.

For `C=C1CC[C@H]2[C@@](C)(CCC(=O)N[C@@]2(C)COC(=O)CCCC[C@@H]2CCSS2)[C@@H]1/C=C/C1=CCOC1=O`, the inhibition entry (in series [1]; in series [2]; in the series with RAW264.7 [3]; with RAW264.7 [7]; in the series with RAW264.7 [12]; with RAW264.7 [13]) was “Dose-dependent effect” throughout. Besides, the inhibition result (in series [4]; in series [6]; in the series on RAW264.7 [9]) was “Active” in each case. For the same molecule, in the series with RAW264.7 [5], the Activity result is given as “Non-Toxic”. Further, at Hexokinase-2 [8], the Kd (usually the equilibrium constant for the complex coming apart) was 5.12 µM. Moreover, the IC50 (usually the concentration at which inhibition is half-maximal) was 22.4 µM with RAW264.7 [10] and 9.36 µM at Hexokinase-2 [11].
